Measured values taken from paper PMC8710804, “Stapled Anoplin as an Antibacterial Agent” (Frontiers in Microbiology, 2021).
Several values for one entry are separate records, joined by “and”; a condition that tells them apart may be missing. Equal entries are not always repeated. Where a SMILES comes first, the peptide text is derived from it. Bridges are numbered along the chain shown (N, C = ends). Where no end group is shown, it is not given here. [ ]: non-standard residue; d: D form. S5 = C=CCCC[C@](C)(N)C(=O)O

Key:
sheep red blood cells = test: Hemolysis assay; type: cell-based; conditions: sheep RBC in PBS pH 7.4, 37°C, 30 min, absorbance 405 nm, relative to 1% Triton-X-100, average of three independent measurements
Procedure: Sheep RBC (200 μl) were pelleted (3,500 rpm for 5 min), washed three times with PBS buffer (PBS 10 mM and 150 mM NaCl, pH 7.4). The cells were then diluted in PBS buffer (10 ml), divided into 50 parts into 1.5 ml tubes, and pelleted by centrifugation. Various concentrations of peptide solutions (200 μl) were added to the cells and incubated with shaking (165 rpm, 37°C) for 30 min. The cells were pelleted by centrifugation (3,500 rpm for 5 min). Then, 100 μl of supernatant from each tube was collected into a clear 96-well plate, and the absorbance of the released hemoglobin was measured with a plate reader spectrophotometer (Microplate Reader Biotek, Winooski, VT, United States) at 405 nm. Hemolysis was determined relative to the negative control (PBS) and the positive control (1% v/v Triton-X-100 that lyses 100% of RBC). The percentage of hemolysis was determined using the following equation:
where A0 is the absorbance intensity of the RBC in buffer (background), and A and A100 are the absorbance intensities of the RBS in the presence of peptides and Triton X-100, respectively.The tests were performed with duplicate samples, and the average values of three independent measurements were recorded.

HEK 293 cells [1] = test: DAPI staining, confocal microscopy of cell morphology; type: cell-based, human; conditions: HEK 293, 24 h, 64 μM of anoplin, 8–32 μM of derivatives (32 μM of anoplin[2-6]), confocal microscope
Procedure: 1 × 10^5 cells were seeded into coverslips and incubated for 24 h. The cells were then treated with anoplin (64 μM) or its derivatives (8–32 μM) for 24 h. Next, cells were washed with PBS and fixed in 4% PFA for 15 min at room temperature. After three washes with PBS, cells were stained with DAPI (4′,6-diamidino-2-phenylindole, dihydrochloride; Boster) for 5 min (as indicated in the instruction). Coverslips with cells were washed three times and mounted on a glass microscope slide using a Dako Fluorescence Mounting Medium. Images were acquired with Axio Imager Z2 LSM 700 Zeiss confocal microscope.

trypsin = test: Trypsin digestion assay; type: in vitro ADME; conditions: trypsin:peptide 1:1333, 0.1 M NH4HCO3 pH 8.0, 37°C, RP-HPLC peak area, performed thrice; for stability against trypsin (comparison in words): up to 8 min
Procedure: 250 μl of peptide solution in ammonium bicarbonate buffer (0.1 M NH4HCO3, pH 8.0) and an appropriate amount of trypsin (Sigma-Aldrich) solution in water were incubated at 37°C with rapid shaking (600 rpm). Trypsin and peptides were mixed in the ratio (1:1333; [Luong et al., 2017b]). After 2, 4, 6, and 8 min of incubation, 60 μl of digestion mixture was taken and treated with 60 μl of a solution of 50% acetonitrile containing 1% TFA to stop the digestion. Peptide degradation was analyzed with RP-HPLC using analytical methods to assess peptide purity (see subsection Synthesis of stapled anoplins). The results were calculated as the percentage of peptide peak of area degradation. The total area of every peak was designated for experiments without trypsin. Each of the experiments was performed thrice.

E. coli K12 MG1655 = conditions: cation-adjusted MHB, ~5 × 10^5 CFU/ml, 37°C, 19 h + 1 h resazurin, OD600, at least three replicates for peptides, one for antibiotics
E. coli O157:H7 = conditions: cation-adjusted MHB, ~5 × 10^5 CFU/ml, 37°C, 19 h + 1 h resazurin, OD600, at least three replicates for peptides, one for antibiotics
E. coli 1841/06 ESBL+ = conditions: cation-adjusted MHB, ~5 × 10^5 CFU/ml, 37°C, 19 h + 1 h resazurin, OD600, at least three replicates for peptides, one for antibiotics
E. coli WR 3551/98 ESBL+ = conditions: cation-adjusted MHB, ~5 × 10^5 CFU/ml, 37°C, 19 h + 1 h resazurin, OD600, at least three replicates for peptides, one for antibiotics
P. aeruginosa PAO1 = conditions: cation-adjusted MHB, ~5 × 10^5 CFU/ml, 37°C, 19 h + 1 h resazurin, OD600, at least three replicates for peptides, one for antibiotics
P. aeruginosa ATCC 27853 = conditions: cation-adjusted MHB, ~5 × 10^5 CFU/ml, 37°C, 19 h + 1 h resazurin, OD600, at least three replicates for peptides, one for antibiotics
S. typhimurium LT2 = conditions: cation-adjusted MHB, ~5 × 10^5 CFU/ml, 37°C, 19 h + 1 h resazurin, OD600, at least three replicates for peptides, one for antibiotics
S. aureus ATCC 29213 = conditions: cation-adjusted MHB, ~5 × 10^5 CFU/ml, 37°C, 19 h + 1 h resazurin, OD600, at least three replicates for peptides, one for antibiotics
[2] = test system: S. aureus ATCC BAA1720 MRSA; conditions: cation-adjusted MHB, ~5 × 10^5 CFU/ml, 37°C, 19 h + 1 h resazurin, OD600, at least three replicates for peptides, one for antibiotics
B. subtilis 168 = conditions: cation-adjusted MHB, ~5 × 10^5 CFU/ml, 37°C, 19 h + 1 h resazurin, OD600, at least three replicates for peptides, one for antibiotics
HEK 293 cells [3] = test: Cytotoxicity assay (MTT); type: cell-based, human; conditions: n = 3
Procedure: The HEK 293 cells were seeded at a density 2 × 10^4 per well on a 96-well plate and incubated in high glucose DMEM medium (Lonza) supplemented with 10% FBS and 50 U/ml of penicillin–streptomycin at 37°C in 5% CO2. After 24 h, cells were covered with a fresh medium containing tested peptides at different concentrations (4, 8, 16, and 32 μM). After 24 or 48 h of incubation, cells viability was tested using MTT [3-(4,5-dimethylthiazol-2-yl)-2,5-diphenyltetrazolium bromide] (Merck). Briefly, 10 μl of 5 mg/ml MTT was added to each well and incubated for 4 h. Formazan produced from MTT was solubilized during overnight incubation in 100 μl of 10% SDS in 0.01 M HCl. Absorbance at 590 nm was measured using Microplate Reader Biotek (Winooski, VT, United States). The experiment was performed in triplicates.

Compound | Hemolytic activity (sheep red blood cells; 4 μM peptide) [%] | Hemolytic activity (sheep red blood cells; 8 μM peptide) [%] | Hemolytic activity (sheep red blood cells; 16 μM peptide) [%] | Hemolytic activity (sheep red blood cells; 32 μM peptide) | Hemolytic activity (sheep red blood cells; 64 μM peptide) [%] | morphology of cells (HEK 293 cells [1]) | stability against trypsin (comparison in words) (trypsin) | MIC (E. coli K12 MG1655) [µM] | MIC (E. coli O157:H7) [µM] | MIC (E. coli 1841/06 ESBL+) [µM] | MIC (E. coli WR 3551/98 ESBL+) [µM] | MIC (P. aeruginosa PAO1) [µM] | MIC (P. aeruginosa ATCC 27853) [µM] | MIC (S. typhimurium LT2) [µM] | MIC (S. aureus ATCC 29213) [µM] | MIC [2] [µM] | MIC (B. subtilis 168) [µM] | other results
C=CCCC[C@](C)(NC(=O)[C@H](CCCCN)NC(=O)[C@H](CC(C)C)NC(=O)[C@H](CC(C)C)NC(=O)CN)C(=O)N[C@H](C(=O)N[C@@H](CCCCN)C(=O)N[C@H](C(=O)N[C@@](C)(CCCC=C)C(=O)N[C@@H](CC(C)C)C(N)=O)[C@@H](C)O)[C@@H](C)CC [anoplinS5(5,9)] (H-GLLK[S5]IKT[S5]L-NH2) | 6.7 | 7.2 | 8.9 | 11.9% | 14.2 | altered cell appearance and the presence of cellular debris | significantly higher stability against trypsin | 64 | 32 | 32 | 64 | 64 | ≥64 | ≥64 | 8 | 8 | 8 | stability against trypsin (comparison in words) (trypsin; listed as S5(5-9) peptide): highest enzymatic resistance
CC[C@H](C)[C@@H]1NC(=O)[C@@](C)(NC(=O)[C@H](CCCCN)NC(=O)[C@H](CC(C)C)NC(=O)[C@H](CC(C)C)NC(=O)CN)CCCC=CCCC[C@@](C)(C(=O)N[C@@H](CC(C)C)C(N)=O)NC(=O)[C@H]([C@@H](C)O)NC(=O)[C@H](CCCCN)NC1=O [anoplin[5-9]] (H-GLLK[S5]IKT[S5]L-NH2; staple 5-9) | 6.5 | 16.6 | 29.8 |  | 62.7 | altered cell appearance and the presence of cellular debris | significantly higher stability against trypsin | 16 | 8 | 8 | 16 | 16 | 32 | 32 | 4 | 4 | 4 | Hemolytic activity (sheep red blood cells; 32 μM peptide, listed as Anoplin[5-9]): 43.2%; Hemolytic activity (sheep red blood cells; 32 μM peptide, listed as anoplin [5-9]): 43%; dead cells (HEK 293 cells [3]; HEK 293, 16 μM peptide): approximately 60%; effect on living cells (HEK 293 cells [3]; HEK 293, 32 μM peptide): nearly eliminated all living cells
NC[C@H]1O[C@H](O[C@H]2[C@H](O)[C@@H](O[C@H]3O[C@H](CO)[C@@H](O)[C@H](N)[C@H]3O)[C@H](N)C[C@@H]2N)[C@H](O)[C@@H](O)[C@@H]1O [kanamycin] |  |  |  |  |  |  |  | 8 | 2 | ≥64 | ≥64 | ≥64 | ≥64 | ≥64 | 4 | ≥64 | 0.25 | 
GLLKRIKTLL-NH2 [anoplin] | 0.5 | 1.3 | 0.7 | 4% and 0.6% | 2.3 | not altered |  | 32 | 64 | 64 | 64 | 16 | 32 | 64 | ≥64 | ≥64 | 16 | effect on cell viability compared to untreated control cells (HEK 293 cells [3]; HEK 293, 4-32 μM peptide, 24 and 48 h of treatment): no significant effect on cell viability; time of incubation with trypsin to complete decay of the peptide peak (trypsin; 600 rpm, sampled at 2, 4, 6, 8 min): 4 to 6 min
polymyxin B |  |  |  |  |  |  |  | 0.25 | 0.5 | 0.25 | 0.5 | 0.5 | 0.25 | 0.5 | ≥64 | ≥64 | 2 | 
